Patent publication US20230085307A1, “PYRIDAZINONE COMPOUND AND HERBICIDE” (NISSAN CHEMICAL CORPORATION, priority 2019, published 2023)

Experiments:
late watergrass = assay: Test Example 2: herbicidal activity, application during weed generation under submerged conditions (Table 17, symbol A); assay type: in vivo, late watergrass (Echinochloa oryzicola); settings: AAH 320 g/ha; application during weed generation, submerged conditions
How it was run: (§1)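 Alluvial soil in Wagner pots was flooded to 4 cm depth and sown with the three weeds together; pots were kept in a greenhouse at 25° C. to 30° C. At the one to two leaf stage, an emulsion formulation diluted in water to a set rate went onto the water surface; scored three weeks later.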

Japanese bulrush = assay: Test Example 2: herbicidal activity, application during weed generation under submerged conditions (Table 17, symbol B); assay type: in vivo, Japanese bulrush (Schoenoplectus juncoides); settings: AAH 320 g/ha; application during weed generation, submerged conditions
How it was run: as §1

oval-leafed pondweed = assay: Test Example 2: herbicidal activity, application during weed generation under submerged conditions (Table 17, symbol C); assay type: in vivo, oval-leafed pondweed (Monochoria vaginalis); settings: AAH 320 g/ha; application during weed generation, submerged conditions
How it was run: as §1

barnyard grass [1] = assay: Test Example 3: herbicidal effect by foliage application, Wagner pot (Table 18, symbol H); assay type: in vivo, barnyard grass (Echinochloa crus-galli); settings: 320 g/ha
How it was run: (§2)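 Plants were sown in alluvial soil held under 0.1–0.5 cm standing water and grown 14 days in a greenhouse at 25–30 °C. An emulsifiable formulation, water-diluted to the set dose, was then sprayed onto the foliage, and effects were scored three weeks later using previously defined criteria.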

Chinese sprangletop = assay: Test Example 3: herbicidal effect by foliage application, Wagner pot (Table 18, symbol D); assay type: in vivo, chinese sprangletop (Leptochloa chinensis); settings: 320 g/ha
How it was run: as §2

rice flat sedge = assay: Test Example 3: herbicidal effect by foliage application, Wagner pot (Table 18, symbol E); assay type: in vivo, rice flat sedge (Cyperus iria); settings: 320 g/ha
How it was run: as §2

southern crabgrass [2] = assay: Test Example 4: herbicidal effect by soil treatment (Table 19, symbol F); assay type: in vivo, southern crabgrass (Digitaria ciliaris); settings: amount of applied herbicide 320 g/ha
How it was run: (§3)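 Seeds were sown in sterilized diluvial soil and covered with about 1.5 cm of soil. An emulsion formulation diluted with water to a predetermined herbicide amount was sprayed evenly onto the soil surface. Plants grew in a greenhouse at 25° C. to 30° C., and the effect was scored three weeks after application using criteria from an earlier test.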

green foxtail [3] = assay: Test Example 4: herbicidal effect by soil treatment (Table 19, symbol G); assay type: in vivo, green foxtail (Setaria viridis); settings: amount of applied herbicide 320 g/ha
How it was run: as §3

barnyard grass [4] = assay: Test Example 4: herbicidal effect by soil treatment (Table 19, symbol H); assay type: in vivo, barnyard grass (Echinochloa crus-galli); settings: amount of applied herbicide 320 g/ha
How it was run: as §3

wild oat [5] = assay: Test Example 4: herbicidal effect by soil treatment (Table 19, symbol I); assay type: in vivo, wild oat (Avena fatua); settings: amount of applied herbicide 320 g/ha
How it was run: as §3

blackgrass [6] = assay: Test Example 4: herbicidal effect by soil treatment (Table 19, symbol J); assay type: in vivo, blackgrass (Alopecurus myosuroides); settings: amount of applied herbicide 320 g/ha
How it was run: as §3

Italian ryegrass [7] = assay: Test Example 4: herbicidal effect by soil treatment (Table 19, symbol K); assay type: in vivo, Italian ryegrass (Lolium multiflorum); settings: amount of applied herbicide 320 g/ha
How it was run: as §3

windgrass [8] = assay: Test Example 4: herbicidal effect by soil treatment (Table 19, symbol L); assay type: in vivo, windgrass (Apera spica-venti); settings: amount of applied herbicide 320 g/ha
How it was run: as §3

velvetleaf [9] = assay: Test Example 4: herbicidal effect by soil treatment (Table 19, symbol M); assay type: in vivo, velvetleaf (Abutilon theophrasti); settings: amount of applied herbicide 320 g/ha
How it was run: as §3

redroot pigweed [10] = assay: Test Example 4: herbicidal effect by soil treatment (Table 19, symbol N); assay type: in vivo, redroot pigweed (Amaranthus retroflexus); settings: amount of applied herbicide 320 g/ha
How it was run: as §3

lambsquarters [11] = assay: Test Example 4: herbicidal effect by soil treatment (Table 19, symbol O); assay type: in vivo, lambsquarters (Chenopodium album); settings: amount of applied herbicide 320 g/ha
How it was run: as §3

chickweed [12] = assay: Test Example 4: herbicidal effect by soil treatment (Table 19, symbol P); assay type: in vivo, common chickweed (Stellaria media); settings: amount of applied herbicide 320 g/ha
How it was run: as §3

false cleavers [13] = assay: Test Example 4: herbicidal effect by soil treatment (Table 19, symbol Q); assay type: in vivo, false cleavers (Galium spurium); settings: amount of applied herbicide 320 g/ha
How it was run: as §3

persian speedwell [14] = assay: Test Example 4: herbicidal effect by soil treatment (Table 19, symbol R); assay type: in vivo, Persian speedwell (Veronica persica); settings: amount of applied herbicide 320 g/ha
How it was run: as §3

southern crabgrass [15] = assay: Test Example 5: herbicidal effect by foliage application, plastic box (Table 20, symbol F); assay type: in vivo, southern crabgrass (Digitaria ciliaris); settings: foliage application, 320 g/ha, evaluated three weeks after application
How it was run: (§4)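 Plants sown in sterilized diluvial soil and grown 14 days in a greenhouse at 25° C to 30° C, then sprayed on the foliage with the compound's emulsion diluted in water to a predetermined herbicide amount. Injury to weeds and crops scored three weeks after application on a visual rating scale.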

green foxtail [16] = assay: Test Example 5: herbicidal effect by foliage application, plastic box (Table 20, symbol G); assay type: in vivo, green foxtail (Setaria viridis); settings: foliage application, 320 g/ha, evaluated three weeks after application
How it was run: as §4

barnyard grass [17] = assay: Test Example 5: herbicidal effect by foliage application, plastic box (Table 20, symbol H); assay type: in vivo, barnyard grass (Echinochloa crus-galli); settings: foliage application, 320 g/ha, evaluated three weeks after application
How it was run: as §4

wild oat [18] = assay: Test Example 5: herbicidal effect by foliage application, plastic box (Table 20, symbol I); assay type: in vivo, wild oat (Avena fatua); settings: foliage application, 320 g/ha, evaluated three weeks after application
How it was run: as §4

blackgrass [19] = assay: Test Example 5: herbicidal effect by foliage application, plastic box (Table 20, symbol J); assay type: in vivo, blackgrass (Alopecurus myosuroides); settings: foliage application, 320 g/ha, evaluated three weeks after application
How it was run: as §4

Italian ryegrass [20] = assay: Test Example 5: herbicidal effect by foliage application, plastic box (Table 20, symbol K); assay type: in vivo, Italian ryegrass (Lolium multiflorum); settings: foliage application, 320 g/ha, evaluated three weeks after application
How it was run: as §4

windgrass [21] = assay: Test Example 5: herbicidal effect by foliage application, plastic box (Table 20, symbol L); assay type: in vivo, windgrass (Apera spica-venti); settings: foliage application, 320 g/ha, evaluated three weeks after application
How it was run: as §4

velvetleaf [22] = assay: Test Example 5: herbicidal effect by foliage application, plastic box (Table 20, symbol M); assay type: in vivo, velvetleaf (Abutilon theophrasti); settings: foliage application, 320 g/ha, evaluated three weeks after application
How it was run: as §4

redroot pigweed [23] = assay: Test Example 5: herbicidal effect by foliage application, plastic box (Table 20, symbol N); assay type: in vivo, redroot pigweed (Amaranthus retroflexus); settings: foliage application, 320 g/ha, evaluated three weeks after application
How it was run: as §4

lambsquarters [24] = assay: Test Example 5: herbicidal effect by foliage application, plastic box (Table 20, symbol O); assay type: in vivo, lambsquarters (Chenopodium album); settings: foliage application, 320 g/ha, evaluated three weeks after application
How it was run: as §4

chickweed [25] = assay: Test Example 5: herbicidal effect by foliage application, plastic box (Table 20, symbol P); assay type: in vivo, common chickweed (Stellaria media); settings: foliage application, 320 g/ha, evaluated three weeks after application
How it was run: as §4

false cleavers [26] = assay: Test Example 5: herbicidal effect by foliage application, plastic box (Table 20, symbol Q); assay type: in vivo, false cleavers (Galium spurium); settings: foliage application, 320 g/ha, evaluated three weeks after application
How it was run: as §4

persian speedwell [27] = assay: Test Example 5: herbicidal effect by foliage application, plastic box (Table 20, symbol R); assay type: in vivo, Persian speedwell (Veronica persica); settings: foliage application, 320 g/ha, evaluated three weeks after application
How it was run: as §4

CCCC(=O)Oc1c(C)nn(C)c(=O)c1-c1c(-c2ccc(OC)cc2)sc2ccc(Cl)cc12 [2-104]
herbicidal effect rating, A: late watergrass (late watergrass): 0 (Herbicidal rate of 5% or less (almost no effect)) | herbicidal effect rating, B: Japanese bulrush (Japanese bulrush): 0 (Herbicidal rate of 5% or less (almost no effect)) | herbicidal effect rating, C: oval-leafed pondweed (oval-leafed pondweed): 2 (Herbicidal rate of 20% or more and less than 40%) | herbicidal effect on H (barnyard grass), rating 0-5 (barnyard grass [1]): 3 (Herbicidal rate of 40% or more and less than 70%) | herbicidal effect on D (Chinese sprangletop), rating 0-5 (Chinese sprangletop): 0 (Herbicidal rate of 5% or less (almost no effect)) | herbicidal effect on E (rice flat sedge), rating 0-5 (rice flat sedge): 5 (Herbicidal rate of 90% or more (almost completely withered)) | F: southern crabgrass, herbicidal effect rating (southern crabgrass [2]): 0 (Herbicidal rate of 5% or less (almost no effect)) | G: green foxtail, herbicidal effect rating (green foxtail [3]): 0 (Herbicidal rate of 5% or less (almost no effect)) | H: barnyard grass, herbicidal effect rating (barnyard grass [4]): 0 (Herbicidal rate of 5% or less (almost no effect)) | I: wild oat, herbicidal effect rating (wild oat [5]): 0 (Herbicidal rate of 5% or less (almost no effect)) | J: blackgrass, herbicidal effect rating (blackgrass [6]): 0 (Herbicidal rate of 5% or less (almost no effect)) | K: Italian ryegrass, herbicidal effect rating (Italian ryegrass [7]): 0 (Herbicidal rate of 5% or less (almost no effect)) | L: windgrass, herbicidal effect rating (windgrass [8]): 0 (Herbicidal rate of 5% or less (almost no effect)) | M: velvetleaf, herbicidal effect rating (velvetleaf [9]): 3 (Herbicidal rate of 40% or more and less than 70%) | N: redroot pigweed, herbicidal effect rating (redroot pigweed [10]): 4 (Herbicidal rate of 70% or more and less than 90%) | O: lambsquarters, herbicidal effect rating (lambsquarters [11]): 3 (Herbicidal rate of 40% or more and less than 70%) | P: chickweed, herbicidal effect rating (chickweed [12]): 3 (Herbicidal rate of 40% or more and less than 70%) | Q: false cleavers, herbicidal effect rating (false cleavers [13]): 0 (Herbicidal rate of 5% or less (almost no effect)) | R: persian speedwell, herbicidal effect rating (persian speedwell [14]): 5 (Herbicidal rate of 90% or more (almost completely withered)) | herbicidal effect on F: southern crabgrass (southern crabgrass [15]): 0 (Herbicidal rate of 5% or less (almost no effect)) | herbicidal effect on G: green foxtail (green foxtail [16]): 0 (Herbicidal rate of 5% or less (almost no effect)) | herbicidal effect on H: barnyard grass (barnyard grass [17]): 0 (Herbicidal rate of 5% or less (almost no effect)) | herbicidal effect on I: wild oat (wild oat [18]): 0 (Herbicidal rate of 5% or less (almost no effect)) | herbicidal effect on J: blackgrass (blackgrass [19]): 0 (Herbicidal rate of 5% or less (almost no effect)) | herbicidal effect on K: Italian ryegrass (Italian ryegrass [20]): 0 (Herbicidal rate of 5% or less (almost no effect)) | herbicidal effect on L: windgrass (windgrass [21]): 0 (Herbicidal rate of 5% or less (almost no effect)) | herbicidal effect on M: velvetleaf (velvetleaf [22]): 3 (Herbicidal rate of 40% or more and less than 70%) | herbicidal effect on N: redroot pigweed (redroot pigweed [23]): 3 (Herbicidal rate of 40% or more and less than 70%) | herbicidal effect on O: lambsquarters (lambsquarters [24]): 2 (Herbicidal rate of 20% or more and less than 40%) | herbicidal effect on P: chickweed (chickweed [25]): 5 (Herbicidal rate of 90% or more (almost completely withered)) | herbicidal effect on Q: false cleavers (false cleavers [26]): 1 (Herbicidal rate of 5% or more and less than 20%) | herbicidal effect on R: persian speedwell (persian speedwell [27]): 5 (Herbicidal rate of 90% or more (almost completely withered))
